According to patent US10722514B2 (FLX Bio, Inc., priority 2017, dated 2020):
Where a name gives a salt, the structure may show the parent alone.

target: T1, recombinant full-length USP7 (Homo sapiens, UniProt Q93009); test: USP7-mediated ubiquitin-rhodamine cleavage assay; format: biochemical; conditions: recombinant full-length USP7 62 pM; ubiquitin-rhodamine 100 nM; 30-minute incubation with compound, 1 hour reaction at room temperature; read-out: Potency: USP7 IC50
T1 construct: A 25 μl reaction volume containing recombinant full-length USP7 (62 pM)
T1 sequence (Q93009 whole entry): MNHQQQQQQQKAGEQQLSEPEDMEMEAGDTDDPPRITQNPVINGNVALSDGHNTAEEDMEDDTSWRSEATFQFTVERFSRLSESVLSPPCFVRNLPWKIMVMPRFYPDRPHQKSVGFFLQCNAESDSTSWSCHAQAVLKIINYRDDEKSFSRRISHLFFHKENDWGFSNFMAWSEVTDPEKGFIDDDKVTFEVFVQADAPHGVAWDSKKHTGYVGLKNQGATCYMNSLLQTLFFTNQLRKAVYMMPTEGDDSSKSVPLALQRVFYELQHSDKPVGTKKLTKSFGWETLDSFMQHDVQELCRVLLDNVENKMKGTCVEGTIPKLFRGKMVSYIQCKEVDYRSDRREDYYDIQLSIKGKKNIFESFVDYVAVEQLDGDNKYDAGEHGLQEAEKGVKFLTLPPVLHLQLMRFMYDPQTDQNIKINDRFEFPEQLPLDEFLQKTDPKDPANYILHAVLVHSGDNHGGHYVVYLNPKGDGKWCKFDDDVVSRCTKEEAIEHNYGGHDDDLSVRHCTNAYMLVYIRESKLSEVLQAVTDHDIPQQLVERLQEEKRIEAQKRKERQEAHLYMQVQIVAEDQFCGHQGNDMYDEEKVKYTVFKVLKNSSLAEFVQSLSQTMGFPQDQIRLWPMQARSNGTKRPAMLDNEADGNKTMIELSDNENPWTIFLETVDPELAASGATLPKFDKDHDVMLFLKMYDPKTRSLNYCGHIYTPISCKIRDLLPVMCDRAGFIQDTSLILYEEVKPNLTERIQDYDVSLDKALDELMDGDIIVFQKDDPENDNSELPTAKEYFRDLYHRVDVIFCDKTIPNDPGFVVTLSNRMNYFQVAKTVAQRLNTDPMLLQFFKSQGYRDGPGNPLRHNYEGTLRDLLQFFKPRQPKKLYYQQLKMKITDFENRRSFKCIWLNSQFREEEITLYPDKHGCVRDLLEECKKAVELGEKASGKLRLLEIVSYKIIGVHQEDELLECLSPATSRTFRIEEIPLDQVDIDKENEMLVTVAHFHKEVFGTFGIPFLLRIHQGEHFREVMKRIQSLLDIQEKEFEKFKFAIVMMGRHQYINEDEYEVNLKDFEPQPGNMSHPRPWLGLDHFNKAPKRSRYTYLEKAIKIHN
In short: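 Rhodamine fluorescence read-out after acetic acid stop; IC50 by 4-parameter nonlinear regression. Enzyme at 62 pM, substrate ubiquitin-rhodamine 100 nM final, 1 h at room temperature in the dark, after 30 min compound preincubation. Buffer: HEPES pH 7.3, NaCl, TCEP, BSA; 1% DMSO.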

Compound | IC50
Cc1cc(C#N)cc(-c2ncnc3cc(CO)sc23)c1O[C@H]1CCCNC1 [Example 183, (S)-3-(6-(Hydroxymethyl)thieno[3,2-d]pyrimidin-4-yl)-5-methyl-4-(piperidin-3-yloxy)benzonitrile] | 1 to 10 µM
Cc1cc(Cl)cc(-c2ccnc3cc(CN4C(=O)CN(C)C4=O)sc23)c1OC1CCNCC1 [Example 224, 3-((7-(5-Chloro-3-methyl-2-(piperidin-4-yloxy)phenyl)thieno[3,2-b]pyridin-2-yl)methyl)-1-methylimidazolidine-2,4-dione] | 1 to 10 µM
Cc1cc(Cl)cc(-c2ccnc3cc(CN4C(=O)CCC4=O)sc23)c1O[C@@H]1CNC[C@@H]1CO [Example 98, 1-((7-(5-Chloro-2-(((3S,4R)-4-(hydroxymethyl)pyrrolidin-3-yl)oxy)-3-methylphenyl)thieno[3,2-b]pyridin-2-yl)methyl)pyrrolidine-2,5-dione] | < 1 µM
Cc1cc(Cl)cc(-c2ccnc3cc(Cn4cnc5ccccc5c4=O)sc23)c1O[C@H]1CCCNC1 [Example 385, 3-[[7-[5-chloro-3-methyl-2-[[(3S)-3-piperidyl]oxy]phenyl]thieno[3,2-b]pyridin-2-yl]methyl]quinazolin-4-one; 2,2,2-trifluoroacetic acid] | 1 to 10 µM
Cc1cc(Cl)cc(-c2ccnc3cc(CN4C(=O)C5CC5C4=O)sc23)c1O[C@@H]1CCNC[C@H]1F (stereo partly drawn) [Example 293, 3-[[7-[5-chloro-2-[[(3R,4R)-3-fluoro-4-piperidyl]oxy]-3-methyl-phenyl]thieno[3,2-b]pyridin-2-yl]methyl]-3-azabicyclo[3.1.0]hexane-2,4-dione; 2,2,2-trifluoroacetic acid] | < 1 µM
OCc1cc2nccc(-c3cc(Cl)cc(C4CC4)c3OCC3CNC3)c2s1 [Example 23, (7-(2-(Azetidin-3-ylmethoxy)-5-chloro-3-cyclopropylphenyl)thieno[3,2-b]pyridin-2-yl)methanol] | 1 to 10 µM
CCC(O)c1cc2nccc(-c3cc(Cl)cc(C)c3O[C@@H]3CN[C@H](C(C)(C)O)C3)c2s1 (stereo partly drawn) [Example 86, 1-(7-(5-Chloro-2-(((3S,5S)-5-(2-hydroxypropan-2-yl)pyrrolidin-3-yl)oxy)-3-methylphenyl)thieno[3,2-b]pyridin-2-yl)propan-1-ol] | 1 to 10 µM
Cc1cc(Cl)cc(-c2ccnc3cc(CN4C(=O)C5CCC5C4=O)sc23)c1O[C@H]1CCCNC1 (stereo partly drawn) [Example 297, 3-[[7-[5-chloro-3-methyl-2-[[(3S)-3-piperidyl]oxy]phenyl]thieno[3,2-b]pyridin-2-yl]methyl]-3-azabicyclo[3.2.0]heptane-2,4-dione; 2,2,2-trifluoroacetic acid] | < 1 µM
Cc1cc(Cl)cc(-c2ccnc3cc(CN4C(=O)CCC4=O)sc23)c1O[C@@H]1CNCC[C@@H]1C [Example 243, 1-((7-(5-Chloro-3-methyl-2-(((3S,4S)-4-methylpiperidin-3-yl)oxy)phenyl)thieno[3,2-b]pyridin-2-yl)methyl)pyrrolidine-2,5-dione] | < 1 µM
Cc1cc(Cl)cc(-c2ccnc3cc(CO)sc23)c1O[C@H]1CNC[C@H]1F [Example 67, (7-(5-Chloro-2-(((3S,4R)-4-fluoropyrrolidin-3-yl)oxy)-3-methylphenyl)thieno[3,2-b]pyridin-2-yl)methanol] | 10 to 30 µM
CN[C@H]1CC[C@H](Oc2c(C)cc(Cl)cc2-c2ccnc3cc(CO)sc23)CC1 [Example 179, (7-(5-Chloro-3-methyl-2-(((1r,4r)-4-(methylamino)cyclohexyl)oxy)phenyl)thieno[3,2-b]pyridin-2-yl)methanol] | 10 to 30 µM
OCc1cc2nccc(-c3cc(Cl)ccc3OCC3CNC3)c2s1 [Example 29, (7-(2-(Azetidin-3-ylmethoxy)-5-chlorophenyl)thieno[3,2-b]pyridin-2-yl)methanol] | 1 to 10 µM
CCC(O)c1cc2nccc(-c3cc(Cl)cc(C)c3OCC3(CC)CNC3)c2s1 (stereo not shown) [Example 38, 1-(7-(5-Chloro-2-((3-ethylazetidin-3-yl)methoxy)-3-methylphenyl)thieno[3,2-b]pyridin-2-yl)propan-1-ol] | < 1 µM
Cc1cc(Cl)cc(-c2ncnc3cc(CN4C(=O)CCC4=O)sc23)c1OC1CCNCC1 [Example 177, 1-((4-(5-Chloro-3-methyl-2-(piperidin-4-yloxy)phenyl)thieno[3,2-d]pyrimidin-6-yl)methyl)pyrrolidine-2,5-dione] | < 1 µM
Cc1cc(Cl)cc(-c2ncnc3cc(CN4C(=O)C5C(C4=O)C5(C)C)sc23)c1O[C@H]1CC[C@H](C)NC1 (stereo partly drawn) [Example 339, 3-[[4-[5-chloro-3-methyl-2-[[(3S,6S)-6-methyl-3-piperidyl]oxy]phenyl]thieno[3,2-d]pyrimidin-6-yl]methyl]-6,6-dimethyl-3-azabicyclo[3.1.0]hexane-2,4-dione dihydrochloride] | < 1 µM
Cc1cc(Cl)cc(-c2ncnc3cc(CN4C(=O)CCCC4=O)sc23)c1O[C@@H]1CNC[C@@H]1F [Example 134, 1-((4-(5-Chloro-2-(((3R,4S)-4-fluoropyrrolidin-3-yl)oxy)-3-methylphenyl)thieno[3,2-d]pyrimidin-6-yl)methyl)piperidine-2,6-dione] | < 1 µM
Cc1cc(Cl)cc(-c2ccnc3cc(CN4CCCCS4(=O)=O)sc23)c1O[C@@H]1CNC[C@@H]1F [Example 2, 2-((7-(5-Chloro-2-(((3R,4S)-4-fluoropyrrolidin-3-yl)oxy)-3-methylphenyl)thieno[3,2-b]pyridin-2-yl)methyl)-1,2-thiazinane 1,1-dioxide] | 1 to 10 µM
Cc1cc(Cl)cc(-c2ncnc3cc(CN4C(=O)CCC4=O)sc23)c1O[C@@H]1CNC[C@@H]1F [Example 113, 1-((4-(5-Chloro-2-(((3R,4S)-4-fluoropyrrolidin-3-yl)oxy)-3-methylphenyl)thieno[3,2-d]pyrimidin-6-yl)methyl)pyrrolidine-2,5-dione] | 1 to 10 µM
OCc1cc2nccc(-c3cc(F)cc(Br)c3O[C@H]3CCCNC3)c2s1 [Example 169, (S)-(7-(3-Bromo-5-fluoro-2-(piperidin-3-yloxy)phenyl)thieno[3,2-b]pyridin-2-yl)methanol] | 10 to 30 µM

same assay, conditions: recombinant full-length USP7 62 pM; ubiquitin-rhodamine 100 nM; 30-minute incubation, 1 hour reaction at room temperature; read-out: Potency (USP7 IC50)

Compound | IC50
CCN1CC[C@@H](Oc2c(C)cc(Cl)cc2-c2ccnc3cc(Cn4c(=O)ccn(CC(F)(F)F)c4=O)sc23)[C@@H](C)C1 [Example 690, 3-[[7-[5-chloro-2-[[(3S,4R)-1-ethyl-3-methyl-4-piperidyl]oxy]-3-methyl-phenyl]thieno[3,2-b]pyridin-2-yl]methyl]-1-(2,2,2-trifluoroethyl)pyrimidine-2,4-dione] | < 1 µM

same assay, conditions: recombinant full-length USP7 62 pM; ubiquitin-rhodamine 100 nM; 30-minute pre-incubation, 1 hour reaction at room temperature; read-out: Potency (USP7 IC50)

Compound | IC50
Cc1cc(Cl)cc(-c2ccnc3cc(Cn4c(=O)ccn(CC(F)(F)F)c4=O)sc23)c1O[C@@H]1CCNC[C@H]1C [Example 558, 3-[[7-[5-chloro-3-methyl-2-[[(3R,4R)-3-methyl-4-piperidyl]oxy]phenyl]thieno[3,2-b]pyridin-2-yl]methyl]-1-(2,2,2-trifluoroethyl)pyrimidine-2,4-dione] | < 1 µM
Cc1cc(Cl)cc(-c2ccnc3cc(Cn4c(=O)ccn(C)c4=O)sc23)c1O[C@H]1CCNC[C@@H]1F [Example 569] | < 1 µM
Cc1cc(Cl)cc(-c2ccnc3cc(Cn4c(=O)ccn(CC(F)(F)F)c4=O)sc23)c1O[C@@H]1CCN(CC(F)(F)F)C[C@@H]1C [Example 638, 3-[[7-[5-chloro-3-methyl-2-[[(3S,4R)-3-methyl-1-(2,2,2-trifluoroethyl)-4-piperidyl]oxy]phenyl]thieno[3,2-b]pyridin-2-yl]methyl]-1-(2,2,2-trifluoroethyl)pyrimidine-2,4-dione] | < 1 µM
Cc1cc(Cl)cc(-c2ncnc3cc(Cn4c(=O)ccn(CC(F)(F)F)c4=O)sc23)c1O[C@@H]1CNC[C@@H]1C [Example 595, 3-[[4-[5-chloro-3-methyl-2-[(3S,4S)-4-methylpyrrolidin-3-yl]oxy-phenyl]thieno[3,2-d]pyrimidin-6-yl]methyl]-1-(2,2,2-trifluoroethyl)pyrimidine-2,4-dione] | < 1 µM
Cc1cc(Cl)cc(-c2ccnc3cc(Cn4c(=O)ccn(CC(F)(F)F)c4=O)sc23)c1O[C@@H]1CNC[C@@H]1F [Example 485, 3-[[7-[5-chloro-2-[(3R,4S)-4-fluoropyrrolidin-3-yl]oxy-3-methyl-phenyl]thieno[3,2-b]pyridin-2-yl]methyl]-1-(2,2,2-trifluoroethyl)pyrimidine-2,4-dione] | < 1 µM
CCn1ccc(=O)n(Cc2cc3nccc(-c4cc(Cl)cc(C)c4O[C@H]4CCCNC4)c3s2)c1=O [Example 423, 3-[[7-[5-chloro-3-methyl-2-[[(3S)-3-piperidyl]oxy]phenyl]thieno[3,2-b]pyridin-2-yl]methyl]-1-ethyl-pyrimidine-2,4-dione] | < 1 µM
Cc1cc(Cl)cc(-c2ccnc3cc(Cn4c(=O)ccn(C)c4=O)sc23)c1O[C@@H]1CN(CCO)C[C@@H]1F [Example 467, 3-[[7-[5-chloro-2-[(3R,4S)-4-fluoro-1-(2-hydroxyethyl)pyrrolidin-3-yl]oxy-3-methyl-phenyl]thieno[3,2-b]pyridin-2-yl]methyl]-1-methyl-pyrimidine-2,4-dione; 2,2,2-trifluoroacetic acid] | < 1 µM
Cc1cc([N+](=O)[O-])cc(-c2ccnc3cc(Cn4c(=O)ccn(CC(F)(F)F)c4=O)sc23)c1Oc1ccnn1C [Example 404, 3-[[7-[3-methyl-2-(2-methylpyrazol-3-yl)oxy-5-nitro-phenyl]thieno[3,2-b]pyridin-2-yl]methyl]-1-(2,2,2-trifluoroethyl)pyrimidine-2,4-dione; 2,2,2-trifluoroacetic acid] | < 1 µM
